PMC11050087, “Polyphenols from Maackia amurensis Heartwood Protect Neuronal Cells from Oxidative Stress and Prevent Herpetic Infection” (International Journal of Molecular Sciences, 2024)
“And” between values parts separate entries of the source, which are not always exact repeats. Equal values may be shown once.

How the values were obtained:
[1] = system: HSV-1; experiment: Virucidal activity, CPE inhibition assay (HSV-1 pretreated with compounds); type: cell-based, HSV-1 strain L2
Method: The antiviral activity of polyphenols from M. amurensis against HSV-1 was assessed using the cytopathic effect inhibition (CPE) assay. To study the inhibitory effect of polyphenolic compounds directly on the HSV-1 virus (direct virucidal activity), the monolayer of Vero cells grown on 96-well plates (1 × 10^4 cells/well) was infected with the virus (100 TCD50/mL), pretreated with different concentrations of polyphenolic compounds.
(§1) The HSV-1 strain L2 obtained from N.F. Gamaleya Federal Research Centre for Epidemiology and Microbiology (Moscow, Russia) was grown in Vero cells as previously described.
(§2) We determined the direct inhibitory effect of polyphenolic compounds from M. amurensis heartwood on HSV-1 (virucidal effect). We mixed the virus at an infectious dose (100 TCID50/mL) with polyphenolic compounds (from 0.1 to 100 µg/mL) at a ratio of 1:1 (v/v) and incubated for an hour at 37 °C. Then, we infected the monolayer of Vero cells grown on 96-well plates (1 × 10^4 cells/well) with HSV-1 pretreated with the studied compounds. After 1 h adsorption at 37 °C, the cells were washed with phosphate-buffered saline (PBS) and overlaid by the maintenance medium with 1% FBS. The plates were incubated for 72 h at 37 °C in a CO2-incubator. The cytopathic effect (CPE) inhibition assay and real-time reverse transcription-PCR (RT-PCR) assay were used to evaluate virucidal effect of the tested compounds.
We previously described this method in detail in [22]. We performed the MTT assay to evaluate the antiviral activity of polyphenolic compounds. The viral inhibition rate (IR, %) was calculated according to Equation (1):(1) IR, %=Atv−Acv/Acd−Acv×100, where Atv is the absorbance of cells infected with HSV-1 pretreated with the studied compounds,
We calculated the selectivity index (SI) as the ratio of CC50 to IC50. Experiments were repeated three times.

[2] = system: HSV-1; experiment: Virucidal activity, RT-PCR assay (HSV-1 pretreated with compounds); type: cell-based, HSV-1 strain L2; details: for Ct: 72 h; for −ΔCt: vs virus control
Method: Vero cells grown on 96-well plates were infected with the virus (100 TCID50/mL), pretreated with polyphenolic compounds at concentrations 0.1, 1 and 10 μg/mL. After 72 h of cell incubation, viral DNA was extracted from the supernatants, and the relative level of HSV-1 DNA was determined using RT-PCR. The effect of polyphenols on the relative level of viral DNA was assessed using the 2^−∆Ct method and reported as fold reduction compared to virus control.
as §1, §2
We performed the RT-PCR assay as we previously described in detail in [22]. Briefly, HSV-1 DNA was extracted after incubation from cell supernatants by using the DNA-sorb-AM (K1-12-100-CE) nucleic acid extraction kit (AmpliSens®, Moscow, Russia) according to the manufacturer′s instructions. We treated the supernatants with a lysis solution that contained guanidine chloride (chaotropic agent) in the presence of sorbent (silica particles). As the elution solution was added, the DNA was […] silica particles and separated from the sorbent particles by centrifugation.
We detected the DNA of HSV-1 in the obtained samples using the AmpliSens® HSV I, II-FRT-100F PCR kit (AmpliSens®, Moscow, Russia) on a real-time PCR instrument Rotor-Gene Q (Qiagen, Hilden, Nordrhein-Westfalen, Germany) according to the manufacturer′s instructions. The PCR reaction conditions were the following: initial denaturation at 95 °C for 15 min; then 5 cycles at 95 °C for 5 s, at 60 °C for 20 s, at 72 °C for 15 s; then 40 cycles at 95 °C for 5 s, at 60 °C for 20 s, and at 72 °C for 15 s. A negative sample was used as the amplification control for each run. The threshold cycle number Ct, was measured as the PCR cycle, where the amount of the amplified target reached the threshold value; the Ct values ≥ 37 indicated the absence of the HSV-1 DNA in the samples. We assessed the anti-HSV-1 activity of the studied compounds by the reduction in the viral DNA levels using the 2^−ΔCt method according to Equation (2):(2) ΔCt=Ctcv−Cttv where Ct is the threshold cycle number measured as the PCR cycle, where the amount of the amplified target reached the threshold value, […]

[3] = Cytotoxicity against Vero cells (MTT assay); type: cell-based; details: African green monkey
Method: We prepared the stock solutions of the tested compounds (10 mg/mL) in DMSO (Sigma, St. Louis, MO, USA). For the MTT assay and further studies of anti-HSV-1 activity, we diluted the stock solutions with DMEM so that the final concentration of DMSO was 0.5%.
We used MTT assay to determine the cytotoxic effect of the tested compounds against Vero cells. We performed the MTT assay as previously described.

[4] = system: 6-OHDA-treated Neuro-2a cells; experiment: ROS analysis in 6-OHDA-treated cells (H2DCF-DA); type: cell-based, murine; details: compound 0.1 µM
Method: We studied the effect of polyphenolic compounds set on ROS levels in 6-OHDA-treated Neuro-2a cells (Figure 5a–d).
(§3) Figure 5 The effect of polyphenolic compounds isolated from M. amurensis heartwood on ROS levels in Neuro-2a cells treated with 6-OHDA (120 μM) (a–d). Polyphenolic compounds isolated from M. amurensis heartwood were used at concentrations 10, 1, 0.1 μM. The data are presented as means ± SEM of three independent replicates.
After 24 h of adhesion, Neuro-2a cells (5 × 10^4 cells/mL) were incubated with polyphenolic compounds at concentrations of 0.1, 1, and 10 µM for 1 h. Then, 120 µM of 6-OHDA or 1 mM of PQ were added to each well, and cells were incubated for 1 h. To study the ROS formation, 20 µL of 2,7-dichlorodihydrofluorescein diacetate solution (H2DCF-DA, Sigma-Aldrich, St. Louis, MO, USA) were added to each well, so that the final concentration was 10 µM. Then, the microplate was incubated for 30 min at 37 °C.

[5] = system: 6-OHDA-treated Neuro-2a cells; experiment: Mitochondrial membrane potential detection (TMRM) in 6-OHDA-treated cells; type: cell-based, murine; details: compound 10 µM; 6-OHDA 120 µM
Method: We determined the effect of polyphenolic compounds from M. amurensis on 6-OHDA-induced mitochondrial dysfunction in Neuro-2a cells (Figure 6a,b).
as §3, with “6” for “5”, “mitochondrial membrane potential” for “ROS levels”, “(a,b).” for “(a–d).”, “replicates. (*) and (***) indicate, respectively, p < 0.05 and p < 0.001 versus 6-OHDA-treated cells.” for “replicates.”
The cells were incubated for 1 h in a 96-well plate (1 × 10^4 cells/well) with polyphenolic compounds (0.1, 1 and 10 µM). Then, 6-OHDA (120 µM) was added, and cell suspension was incubated for 1 h. Cells incubated without 6-OHDA and compounds and with 6-OHDA alone were used as positive and negative control, respectively. The tetramethylrhodamine methyl (TMRM) (Sigma-Aldrich, St. Louis, MO, USA) solution (500 nM) was added to each well and cells were incubated for 30 min at 37 °C. The intensity of fluorescence was measured using a PHERAstar FSplate reader (BMG Labtech, Ortenberg, Germany) at λex = 540 nm and λem = 590 nm. The data were processed by MARS Data Analysis v. 3.01R2 (BMG Labtech, Ortenberg, Germany).

[6] = system: 6-OHDA-treated Neuro-2a cells; experiment: Apoptosis profile by flow cytometry (Annexin V & Dead Cell Kit); type: cell-based, murine; details: Table 1; polyphenols 10 µM, 6-OHDA 100 µM, 24 h; mean
Method: We investigated the effect of polyphenolic compounds from M. amurensis on apoptosis profile in 6-OHDA-treated Neuro-2a cells by flow cytometry using fluorescent annexin V conjugate as a fluorescent dye. We observed significant changes in apoptosis profile in Neuro-2a cells after 6-OHDA-treatment. […] Polyphenols 3, 6 and 13 diminished the neurotoxic effect of 6-OHDA-treatment.
The cells were incubated for 1 h in a 6-well plate (5 × 10^4 cells/mL) with polyphenolic compounds (10 µM). Then, 6-OHDA (100 µM) was added, and cell suspension was incubated for 24 h. After incubation, the maintenance media was collected, and the cells were washed by cold PBS twice and incubated with trypsin-EDTA solution. The cell suspension was washed with cold PBS twice again, centrifugated and then used for apoptosis detection by Muse® Annexin V & Dead Cell Kit in accordance with the manufacturer’s instructions (Luminex, Austin, TX, USA). The fluorescence was measured with Muse® Cell Analyzer (Luminex, Austin, TX, USA) and the data were processed by Muse 1.5 Analysis software (Luminex, Austin, TX, USA).

[7] = Human alphaherpesvirus 1, 72 h, read-out: 2^−ΔCt
[8] = Human alphaherpesvirus 1, 72 h, read-out: log10

Molecule: COc1ccc([C@H]2COc3cc(O)ccc3[C@@H]2c2c(O)cc(O)cc2/C=C/c2ccc(O)c(O)c2)c(O)c1 [Compound 14, maackiapicevestitol]
- IC50 ([1]; Human alphaherpesvirus 1, virus pretreated with compound (virucidal), CPE assay, Vero cells, 100 TCID50/mL): 8.6 µg/mL and 16.7 µM
- SI ([1]; ratio of CC50 to IC50, virucidal scheme): 18.9 ± 2.8
- Ct ([2]; 0.1 µg/mL): 18.4 ± 2.4
- −ΔCt ([2]; 0.1 µg/mL): −0.30 ± 0.03
- Ct ([2]; 1 µg/mL): 19.2 ± 2.5
- −ΔCt ([2]; 1 µg/mL): −1.1 ± 0.1
- anti-HSV-1 activity by RT-PCR (in words) ([2]; 10 µg/mL): significantly reduced the level of viral DNA
- Ct ([2]; 10 µg/mL): 27.1 ± 3.8
- −ΔCt ([2]; 10 µg/mL): −9.0 ± 1.2
- activity at 0.1 µg/mL [2, 7]: 81.2 ± 11%
- activity at 1 µg/mL [2, 7]: 46.6 ± 5.6%
- activity at 10 µg/mL [2, 7]: 0.195 ± 0.02%
- log reduction at 0.1 µg/mL [2, 8]: 0.09 ± 0.01
- log reduction at 1 µg/mL [2, 8]: 0.33 ± 0.04
- log reduction at 10 µg/mL [2, 8]: 2.7 ± 0.3
- CC50 [3]: 162 µg/mL and 316 µM

Molecule: retusin [Compound 3]
- inhibition of ROS formation in 6-OHDA-treated Neuro-2a cells (in words) [4]: considerably inhibited ROS formation
- virucidal activity against HSV-1 (in words) ([1]; CPE assay, virus pretreated with compound): did not show virucidal activity
- effect on mitochondrial membrane potential (in words) [5]: weak activity
- virucidal activity against HSV-1 by RT-PCR (in words) ([2]; 0.1, 1 and 10 µg/mL): did not demonstrate virucidal activity
- Dead [6]: 1.18 ± 0.24%
- Early apop. [6]: 19.63 ± 0.79 %
- Late apop./Dead [6]: 11.31 ± 0.49%
- Live [6]: 67.89 ± 1.52 %
